The results in this text go back to ChEMBL document CHEMBL4402594, “Interrogating the Lactate Dehydrogenase Tetramerization Site Using (Stapled) Peptides” (J Med Chem, 2020).

The source made the active and inactive calls. The calls are words filed in the database; no cut-off is given here. Peptide text beside a SMILES is read from it.

For data set [1], the target named is T1, L-lactate dehydrogenase A chain (Homo sapiens, UniProt P00338). The data set is described as follows: Binding affinity to human N-terminal His6-tagged LDH-5 expressed in Escherichia coli Rosetta (DE3) assessed as induction of thermal destabilization by measuring melting temperature at 400 uM by nano differential scanning fluorimetry analysis (reference value: 66 degree C).

Data set [2] addresses T2, L-lactate dehydrogenase B chain (Homo sapiens, UniProt P07195). The data set is described as follows: Binding affinity to recombinant full length human His-tagged LDH-1 (1 to 322 residues) expressed in Escherichia coli assessed as induction of thermal destabilization at 400 uM by nano differential scanning fluorimetry analysis. A general note: Differential scanning fluorimetry follows unfolding on heating by fluorescence.
Target sequence in this assay (P07195 2-334 limits assumed): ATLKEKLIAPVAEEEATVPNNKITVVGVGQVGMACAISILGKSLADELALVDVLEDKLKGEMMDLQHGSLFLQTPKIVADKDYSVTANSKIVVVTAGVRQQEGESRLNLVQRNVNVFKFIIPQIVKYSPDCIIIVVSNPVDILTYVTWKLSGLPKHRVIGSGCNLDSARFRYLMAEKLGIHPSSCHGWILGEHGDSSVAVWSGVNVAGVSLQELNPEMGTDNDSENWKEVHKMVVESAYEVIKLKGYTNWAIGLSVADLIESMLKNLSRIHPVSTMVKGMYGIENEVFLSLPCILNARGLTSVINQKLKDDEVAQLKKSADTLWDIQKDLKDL

The target of data set [3] is T1, L-lactate dehydrogenase A chain. The data set is described as follows: Binding affinity to truncated N-terminal His6-tagged human LDH-5 expressed in Escherichia coli Rosetta (DE3) assessed as induction of protein disruption by interacting with tetramerization site by Red-NHS fluorescence dye based microscale thermophoresis analysis. (Microscale thermophoresis detects binding through changes in fluorescence in a small temperature gradient.)

For data set [4] the target is unchanged. The data set is described as follows: Binding affinity to human N-terminal His6-tagged human LDH-5 expressed in Escherichia coli Rosetta (DE3) assessed as induction of protein disruption by interacting with tetramerization site by Red-NHS fluorescence dye based microscale thermophoresis analysis.
Data set [5] concerns the target T2, L-lactate dehydrogenase B chain. The data set is described as follows: Binding affinity to recombinant full length human His-tagged LDH-1 (1 to 322 residues) expressed in Escherichia coli assessed as induction of thermal destabilization by measuring change in melting temperature at 400 uM by nano differential scanning fluorimetry analysis.
Target sequence in this assay (P07195 2-334 limits assumed): as above
Data set [6] concerns the target T1, L-lactate dehydrogenase A chain. The data set is described as follows: Binding affinity to human N-terminal His6-tagged LDH-5 expressed in Escherichia coli Rosetta (DE3) assessed as induction of thermal destabilization by measuring change in melting temperature at 400 uM by nano differential scanning fluorimetry analysis.
The target is the same in data set [7]. The data set is described as follows: Binding affinity to truncated human N-terminal His6-tagged LDH-5 expressed in Escherichia coli Rosetta (DE3) assessed as induction of thermal destabilization by measuring melting temperature at 400 uM by nano differential scanning fluorimetry analysis.
Data set [8] deals with L-lactate dehydrogenase A chain (Oryctolagus cuniculus) (UniProt P13491). The data set is described as follows: Binding affinity to rabbit LDH-5 assessed as acid-induced dimerization by measuring fluorescence recovery at 0.75 uM to 400 uM pH 7.6 by nano differential scanning fluorimetry analysis.
Data set [9] concerns the target T1, L-lactate dehydrogenase A chain. The data set is described as follows: Binding affinity to human N-terminal His6-tagged LDH-5 expressed in Escherichia coli Rosetta (DE3) assessed as induction of thermal destabilization at 400 uM by nano differential scanning fluorimetry analysis.
Data set [10] concerns the target T2, L-lactate dehydrogenase B chain. The data set is described as follows: Binding affinity to full length human N-terminal His6-tagged LDH-H expressed in Escherichia coli Rosetta (DE3) assessed as saturation transfer at N-terminal residues at 800 uM phosphate buffer at pH 7 by 2D NMR-TOCSY analysis.
Target sequence in this assay (P07195 2-334 limits assumed): as above
Data set [11] shares this target. The data set is described as follows: Inhibition of recombinant full length human His-tagged LDH-1 (1 to 322 residues) expressed in Escherichia coli at 800 uM by WaterLOGSY NMR analysis.
Target sequence in this assay (P07195 whole entry, the tested form may be a part): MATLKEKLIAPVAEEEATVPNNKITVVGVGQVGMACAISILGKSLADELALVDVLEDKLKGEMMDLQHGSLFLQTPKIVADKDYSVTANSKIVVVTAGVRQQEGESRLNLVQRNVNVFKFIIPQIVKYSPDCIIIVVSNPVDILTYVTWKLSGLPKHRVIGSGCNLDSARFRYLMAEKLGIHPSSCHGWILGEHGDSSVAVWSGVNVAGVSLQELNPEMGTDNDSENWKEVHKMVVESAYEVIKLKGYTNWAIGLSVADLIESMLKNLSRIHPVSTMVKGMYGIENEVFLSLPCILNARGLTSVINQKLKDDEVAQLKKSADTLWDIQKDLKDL
The target is the same in data set [12]. The data set is described as follows: Binding affinity to full length human N-terminal His6-tagged LDH-H expressed in Escherichia coli Rosetta (DE3) measured after 5 mins by Red-NHS fluorescent dye based microscale thermophoresis analysis.
Target sequence in this assay (P07195 whole entry, the tested form may be a part): as above
Data set [13] has the same target. The data set is described as follows: Binding affinity to full length human N-terminal His6-tagged LDH-H expressed in Escherichia coli Rosetta (DE3) assessed as saturation transfer at C-terminal residues at 800 uM phosphate buffer at pH 7 by 2D NMR-TOCSY analysis.
Target sequence in this assay (P07195 2-334 limits assumed): as the sequence (P07195 2-334 limits assumed) above
For data set [14] the target is unchanged. The data set is described as follows: Binding affinity to recombinant full length human His-tagged LDH-1 (1 to 322 residues) expressed in Escherichia coli at 800 uM by WaterLOGSY NMR analysis.
Target sequence in this assay (P07195 whole entry, the tested form may be a part): as the sequence (P07195 whole entry, the tested form may be a part) above
For data set [15] the target is unchanged. The data set is described as follows: Binding affinity to recombinant full length human His-tagged LDH-1 (1 to 322 residues) expressed in Escherichia coli by WaterLOGSY NMR analysis.
Target sequence in this assay (P07195 whole entry, the tested form may be a part): as above
For data set [16] the target is unchanged. The data set is described as follows: Binding affinity to full length human N-terminal His6-tagged LDH-H expressed in Escherichia coli Rosetta (DE3) assessed as saturation transfer stemming at 800 uM in sodium phosphate buffer at pH 7.6 by WaterLOGSY NMR analysis.
Target sequence in this assay (P07195 2-334 limits assumed): as the sequence (P07195 2-334 limits assumed) above

The term EC50 denotes the concentration giving half of the maximal effect. Usually ΔTm stands for the change in melting temperature against a reference sample. For the molecule `CC[C@H](C)[C@H](NC(=O)[C@H](CC(C)C)NC(=O)[C@H](CCCCN)NC(=O)[C@@H]1CSc2c(F)c(F)c(c(F)c2F)SC[C@H](N)C(=O)N[C@@H]([C@@H](C)O)C(=O)N[C@@H](CC(C)C)C(=O)N[C@@H](CCCCN)C(=O)N1)C(N)=O` (HELM PEPTIDE1{C.T.L.K.C.K.L.I.[am]}|CHEM1{[Fc1c(F)c([*:2])c(F)c(F)c1[*:1]]}$PEPTIDE1,CHEM1,1:R3-1:R1|PEPTIDE1,CHEM1,5:R3-1:R2$$$V2.0), the Tm in data set [1] is 61 °C. For the same molecule, the outcome in data set [2], in data set [8] and in data set [9] was Active. Moreover, the outcome in data set [3] and in [7] was inactive. Besides, the EC50 in [4] stood at 172 µM. For the same molecule, the ΔTm is -1.5 °C in data set [5] and -5 °C in data set [6].
In general, Kd refers to the equilibrium constant for the complex coming apart. Higher therefore signals lower affinity. Regarding H-ATLKEKLIAPVAEEEATVP-NH2, the outcome in data set [10], in data set [13] and in [16] was Active. For the same molecule, in data set [11], the “inhibition (INH)” value is on record as “Not Active”. This molecule gave a Kd in data set [12] of 1780 µM. The Activity entry in [14] and in data set [15] was “Not Active” each time.
